Measurements from patent US20070249670A1, “Glycogen Phosphorylase Inhibitor Compounds and Pharmaceutical Compositions Thereof” (SMITHKLINE BEECHAM CORPORATION, priority 2004, published 2007).
Structures can show the parent of a compound that is named as a salt.

Target: T1, human liver glycogen phosphorylase a (HLGPa) (Homo sapiens, UniProt P06737)
T1 construct: creating a full-length cDNA fused at the 5′ end to codons for methionine-glycine-alanine-histidine; 6xHis tag (leader Met-Gly-Ala-His6-Gly-Gly) (N); made in house; host or cells: E. coli (bacterial expression plasmid pTXK1007LTev)
T1 sequence (P06737 2-847 limits assumed): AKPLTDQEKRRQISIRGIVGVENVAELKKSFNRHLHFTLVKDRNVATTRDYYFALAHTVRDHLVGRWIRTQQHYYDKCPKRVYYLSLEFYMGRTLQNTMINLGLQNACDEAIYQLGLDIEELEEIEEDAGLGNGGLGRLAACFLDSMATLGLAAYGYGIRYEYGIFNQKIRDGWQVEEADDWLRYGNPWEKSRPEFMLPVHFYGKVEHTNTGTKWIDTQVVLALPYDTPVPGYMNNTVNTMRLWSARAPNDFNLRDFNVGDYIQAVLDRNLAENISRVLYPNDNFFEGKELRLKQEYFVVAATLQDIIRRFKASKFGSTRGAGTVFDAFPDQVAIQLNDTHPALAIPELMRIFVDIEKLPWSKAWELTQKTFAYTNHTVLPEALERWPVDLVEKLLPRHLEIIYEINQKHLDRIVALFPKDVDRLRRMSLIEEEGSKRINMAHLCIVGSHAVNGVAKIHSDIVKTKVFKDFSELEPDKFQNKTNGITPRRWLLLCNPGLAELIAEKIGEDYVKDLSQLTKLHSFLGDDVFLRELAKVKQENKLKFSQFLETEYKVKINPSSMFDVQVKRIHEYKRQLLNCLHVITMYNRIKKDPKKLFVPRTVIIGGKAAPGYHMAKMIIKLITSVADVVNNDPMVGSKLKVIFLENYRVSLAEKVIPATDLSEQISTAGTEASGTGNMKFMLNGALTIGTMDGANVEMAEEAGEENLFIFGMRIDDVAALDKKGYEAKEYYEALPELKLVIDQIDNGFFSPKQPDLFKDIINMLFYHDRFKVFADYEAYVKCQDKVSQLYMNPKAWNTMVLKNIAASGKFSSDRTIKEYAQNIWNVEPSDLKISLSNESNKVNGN
Assay: Human liver glycogen phosphorylase a enzymatic activity assay (coupled, fluorescent resorufin readout, with and without 10 mM glucose)
Format: biochemical

[1] = human liver glycogen phosphorylase a, table does not say whether with or without 10 mM glucose
[2] = human liver glycogen phosphorylase a enzymatic activity assay

SMILES	IC50 [1]	IC50 [2]
Cc1cc(C)c(NC(=O)Nc2cc3ccccc3cc2C(=O)NC(C(=O)O)C2CCC(NC3CCC3)CC2)c(C)c1 (mixture of isomers) [Example 347, (cis and trans)-[4-(cyclobutylamino)cyclohexyl]({[3-({[(2,4,6-trimethylphenyl)amino]carbonyl}amino)-2-naphthalenyl]carbonyl}amino)acetic acid]	810 nM	
Cc1cc(C)c(NC(=O)Nc2cc3ccccc3cc2C(=O)NC(C(=O)O)C2CCC(N3CCOCC3)CC2)c(C)c1 (mixture of isomers) [Example 348, (cis and trans)-[4-(4-morpholinyl)cyclohexyl]({[3-({[(2,4,6-trimethylphenyl)amino]carbonyl}amino)-2-naphthalenyl]carbonyl}amino)acetic acid]	1860 nM	
COC(=O)C(NC(=O)c1cc2ccccc2cc1NC(=O)Nc1c(C)cc(C)cc1C)C1CCC(NC(=O)OC(C)(C)C)CC1 (mixture of isomers) [Example 349, (cis and trans)-methyl[4-({[(1,1-dimethylethyl)oxy]carbonyl}amino)cyclohexyl] ({[3-({[(2,4,6-trimethylphenyl)amino]carbonyl}amino)-2-naphthalenyl]carbonyl}amino)acetate]	6890 nM	
Cc1cc(C)c(NC(=O)Nc2cc3ccccc3cc2C(=O)NC(C(=O)O)C2CCC(NC(=O)OC(C)(C)C)CC2)c(C)c1 (mixture of isomers) [Example 350, (cis and trans)-[4-({[(1,1-dimethylethyl)oxy]carbonyl}amino)cyclohexyl]({[3-({[(2,4,6-trimethylphenyl)amino]carbonyl}amino)-2-naphthalenyl]carbonyl}amino)acetic acid]	44 nM	
Cc1cc(C)c(NC(=O)Nc2cc3ccccc3cc2C(=O)NC(C(=O)O)C2CCC(N)CC2)c(C)c1 (mixture of isomers) [Example 351, (cis and trans)-(4-aminocyclohexyl)({[3-({[(2,4,6-trimethylphenyl)amino]carbonyl}amino)-2-naphthalenyl]carbonyl}amino)acetic acid trifluoroacetate]	2370 nM	
CNC(=O)NC1CCC(C(NC(=O)c2cc3ccccc3cc2NC(=O)Nc2c(C)cc(C)cc2C)C(=O)O)CC1 (mixture of isomers) [Example 352, (cis and trans)-(4-{[(methylamino)carbonyl]amino}cyclohexyl)({[3-({[(2,4,6-trimethylphenyl)amino]carbonyl}amino)-2-naphthalenyl]carbonyl}amino)acetic acid]	100 nM	
Cc1cc(C)c(NC(=O)Nc2cc(Cl)cnc2C(=O)N[C@H](C(=O)O)C(C)OC(C)(C)C)c(C)c1 (stereo in doubt) [Example 318, N-{[5-chloro-3-({[(2,4,6-trimethylphenyl)amino]carbonyl}amino)-2-pyridinyl]carbonyl}-O-(1,1-dimethylethyl)-L-threonine]	4280 nM	
Cc1cccc(C)c1NC(=O)Nc1sc2c(c1C(=O)N[C@H](C(=O)O)C(C)C)CCCC2 [Example 3, N-{[2-({[(2,6-dimethylphenyl)amino]carbonyl}amino)-4,5,6,7-tetrahydro-1-benzothien-3-yl]carbonyl}-L-valine]		32200 nM
Cc1cccc(Cl)c1NC(=O)Nc1cc2ccccc2cc1C(=O)NC(C(=O)O)C1CCCNC1 (stereo not drawn) [Example 5, {[3-({[(2-chloro-6-methylphenyl)amino]carbonyl}amino)-2-naphthoyl]amino}(piperidin-3-yl)acetic acid trifluoroacetate]		20900 nM
Cc1cc(CNC(=O)c2cc3ccccc3cc2NC(=O)Nc2c(C)cccc2Cl)on1 [Example 6, 3-({[(2-chloro-6-methylphenyl)amino]carbonyl}amino)-N-[(3-methylisoxazol-5-yl)methyl]-2-naphthamide]		35100 nM
Cc1ccccc1CC(=O)Nc1cc2ccccc2cc1C(=O)N[C@H](C(=O)O)C1CCCCC1 [Example 7, (2S)-cyclohexyl{[(3-{[(2-methylphenyl)acetyl]amino}-2-naphthalenyl)carbonyl]amino}ethanoic acid]		17000 nM
Cc1ccccc1NC(=O)Nc1cc2ccccc2cc1C(=O)NCC(=O)O [Example 10, N-[3-({[(2-methylphenyl)amino]carbonyl}amino)-2-naphthoyl]glycine]		6500 nM
Cc1ccccc1NC(=O)Nc1cc2ccccc2cc1C(=O)N[C@@H](C)C(=O)O [Example 13, N-[3-({[(2-methylphenyl)amino]carbonyl}amino)-2-naphthoyl]-L-alanine]		15500 nM
CC[C@H](C)[C@H](NC(=O)c1cc2ccccc2cc1NC(=O)Nc1ccccc1C)C(=O)O [Example 15, N-[3-({[(2-methylphenyl)amino]carbonyl}amino)-2-naphthoyl]-L-isoleucine]		11000 nM

The remaining molecules from weak to strong by IC50 [2], led by results:

IC50 [1]	IC50 [2]	SMILES
	6410 nM	Cc1ccccc1NC(=O)Nc1cc2ccccc2cc1C(=O)N[C@H](C(=O)O)[C@@H](C)O [Example 14, N-[3-({[(2-methylphenyl)amino]carbonyl}amino)-2-naphthoyl]-L-threonine]
	5100 nM	Cc1ccccc1NC(=O)Nc1cc2ccccc2cc1C(=O)N[C@@H](CC(C)C)C(=O)O [Example 16, N-[3-({[(2-methylphenyl)amino]carbonyl}amino)-2-naphthoyl]-L-leucine]
	4720 nM	Cc1ccccc1NC(=O)Nc1cc2ccccc2cc1C(=O)N[C@@H](CC(N)=O)C(=O)O [Example 17, N-[3-({[(2-methylphenyl)amino]carbonyl}amino)-2-naphthoyl]-L-asparagine]
	3010 nM	Cc1cccc(C)c1NC(=O)Nc1cc2ccccc2cc1C(=O)N[C@@H](CCC(N)=O)C(=O)O [Example 26, N-[3-({[(2,6-dimethylphenyl)amino]carbonyl}amino)-2-naphthoyl]-L-glutamine]
	2780 nM	O=C(O)C[C@H](NC(=O)c1cc2ccccc2cc1NC(=O)Nc1ccccc1Cl)C(=O)O [Example 9, N-[3-({[(2-chlorophenyl)amino]carbonyl}amino)-2-naphthoyl]-L-aspartic acid]
	2520 nM	O=C(O)CNC(=O)c1cc2ccccc2cc1NC(=O)Nc1ccccc1Cl [Example 12, N-[3-({[(2-chlorophenyl)amino]carbonyl}amino)-2-naphthoyl]glycine]
	2240 nM	Cc1cccc(C)c1NC(=O)Nc1cc2ccccc2cc1C(=O)N1CCC[C@H]1C(=O)O [Example 20, 1-[3-({[(2,6-dimethylphenyl)amino]carbonyl}amino)-2-naphthoyl]-L-proline]
	2000 nM	Cc1cccc(C)c1NC(=O)Nc1cc2ccccc2cc1C(=O)N[C@@H](CO)C(=O)O [Example 19, N-[3-({[(2,6-dimethylphenyl)amino]carbonyl}amino)-2-naphthoyl]-L-serine]
	1960 nM	Cc1cccc(C)c1NC(=O)Nc1cc2ccccc2cc1C(=O)N[C@H](C(=O)O)C(C)C [Example 21, N-[3-({[(2,6-dimethylphenyl)amino]carbonyl}amino)-2-naphthoyl]-L-valine]
	1480 nM	Cc1cccc(C)c1NC(=O)Nc1cc2ccccc2cc1C(=O)N[C@@H](C)C(=O)O [Example 18, N-[3-({[(2,6-dimethylphenyl)amino]carbonyl}amino)-2-naphthoyl]-L-alanine]
	1190 nM	Cc1cccc(C)c1NC(=O)Nc1cc2ccccc2cc1C(=O)N[C@@H](CC(C)C)C(=O)O [Example 24, N-[3-({[(2,6-dimethylphenyl)amino]carbonyl}amino)-2-naphthoyl]-L-leucine]
	1080 nM	Cc1cccc(C)c1NC(=O)Nc1cc2ccccc2cc1C(=O)N[C@H](C(=O)O)[C@@H](C)O [Example 22, N-[3-({[(2,6-dimethylphenyl)amino]carbonyl}amino)-2-naphthoyl]-L-threonine]
	890 nM	CC[C@H](C)[C@H](NC(=O)c1cc2ccccc2cc1NC(=O)Nc1c(C)cccc1C)C(=O)O [Example 23, N-[3-({[(2,6-dimethylphenyl)amino]carbonyl}amino)-2-naphthoyl]-L-isoleucine]
	730 nM	Cc1cccc(C)c1NC(=O)Nc1sc2ccccc2c1C(=O)N[C@H](C(=O)O)C1CCCCC1 [Example 4, (2S)-cyclohexyl({[2-({[(2,6-dimethylphenyl)amino]carbonyl}amino)-1-benzothien-3-yl]carbonyl}amino)acetic acid]
	670 nM	Cc1cccc(C)c1NC(=O)Nc1cc2ccccc2cc1C(=O)N[C@@H](CC(N)=O)C(=O)O [Example 25, N-[3-({[(2,6-dimethylphenyl)amino]carbonyl}amino)-2-naphthoyl]-L-asparagine]
	90 nM	Cc1cccc(C)c1NC(=O)Nc1cc2ccccc2cc1C(=O)NCC(=O)O [Example 11, N-[3-({[(2,6-dimethylphenyl)amino]carbonyl}amino)-2-naphthoyl]glycine]
